In patent US12441723B2, “Pyrazole compounds, formulations thereof, and a method for using the compounds and/or formulations” (Rigel Pharmaceuticals, Inc., priority 2019, dated 2025):
Structures can show the parent of a compound that is named as a salt.

Tests used:
[1] = Pharmacokinetics in male cynomolgus monkeys (co-crystal capsules, spray-dried dispersion); assay type: in vivo
Experimental: Two groups of male cynomolgus monkeys (n=3/group) were administered test articles in a 3-way crossover design as indicated in Table 2. The washout period between doses was 3-4 days. Test article capsules were prepared such that each capsule contained an equivalent of 25 mg of free base compound I-1. The organic stock solution of compound I-1 was prepared at a concentration of 5 mg/ml using TPGS/PEG400/PG, and was diluted with apple juice within 1 hour of dosing (PO) at 1 part stock solution to 3 parts apple juice.
FIGS. 11-14 provide graphs of the plasma concentrations obtained from administering the co-crystal formulations of compound I-1 to monkeys. And Table 3 provides pharmacokinetic (PK) data for the co-crystal formulations, including the average area under the curve (AUC) and percent bioavailability.
FIG. 19 provides PK data for one embodiment of the disclosed spray-dried formulation, and the organic/juice formulation.

[2] = Physical and chemical stability of salts of I-18, 1 week (XRPD, HPLC purity); assay type: physicochemical; conditions: for Area (%) of HPLC peak RRT 1.00: main peak; for Area (%) of HPLC peak RRT 1.17: peak = parent compound formed by hydrolysis; for Form change: XRPD; for Initial purity (area %): HPLC, before storage
Experimental: The physical and chemical stability of the K salt, Arginine salt, Choline salt and Tris salt were evaluated under conditions of 25° C./60% RH and 40° C./75% RH for 1 week. Each sample was added into 3 mL glass vials, sealed by parafilm with several holes, and kept under tested condition. After one week, samples was taken for XRPD and HPLC purity test.

[3] = 25° C./60% RH, 1 week, listed as tris salt
[4] = 40° C./75% RH, 1 week, listed as tris salt
[5] = 25° C./60% RH, 1 week, listed as choline salt
[6] = 40° C./75% RH, 1 week, listed as choline salt
[7] = Initial, listed as choline salt
[8] = 25° C./60% RH, 1 week, listed as potassium salt
[9] = 40° C./75% RH, 1 week, listed as potassium salt
[10] = Initial, listed as potassium salt

## CCO[C@H]1CC[C@H](n2cc(NC(=O)c3csc(-c4cn[nH]c4)n3)c(-c3nc(F)ccc3F)n2)CC1.O=C(O)C(O)C(O)C(=O)O [I-11, N-(3-(3,6-difluoropyridin-2-yl)-1-((1r,4r)-4-ethoxycyclohexyl)-1H-pyrazol-4-yl)-2-(1H-pyrazol-4-yl)thiazole-4-carboxamide hemi-tartrate salt]
[1]; n=3, capsule with equivalent of 25 mg free base compound I-1
  % F (percent bioavailability): 24.7%

## CCO[C@H]1CC[C@H](n2cc(NC(=O)c3csc(-c4cnn(C(C)OP(=O)(O)O)c4)n3)c(-c3nc(F)ccc3F)n2)CC1 (stereo partly drawn) [I-49, 1-(4-(4-((3-(3,6-difluoropyridin-2-yl)-1-((1r,4r)-4-ethoxycyclohexyl)-1H-pyrazol-4-yl)carbamoyl)thiazol-2-yl)-1H-pyrazol-1-yl)ethyl dihydrogen phosphate tris salt]
[2]; 25° C./60% RH, 1 week
  Area (%) of HPLC peak RRT 1.13: 0.06%
[2]; [3]
  Area (%) of HPLC peak RRT 0.77: <0.03%
  Area (%) of HPLC peak RRT 1.45: 0.35%
  Area (%) of HPLC peak RRT 1.71: 0.80%
  Area (%) of HPLC peak RRT 1.73: 0.55%
  HPLC purity change: no HPLC purity decrease
  Area (%) of HPLC peak RRT 1.00: 96.61%
  Area (%) of HPLC peak RRT 1.17: 1.63%
[2]; 25° C./60% RH/1 week, listed as Tris salt
  Form change: no form change and No
[2]; [4]
  Area (%) of HPLC peak RRT 0.77: 0.03%
  Area (%) of HPLC peak RRT 1.45: 0.47%
  Area (%) of HPLC peak RRT 1.71: 0.88%
  Area (%) of HPLC peak RRT 1.73: 0.84%
  HPLC purity change: a purity decrease was observed
  Area (%) of HPLC peak RRT 1.00: 95.03%
  Area (%) of HPLC peak RRT 1.17: 2.69%
[2]; 40° C./75% RH/1 week, listed as Tris salt
  Form change: no form change and No
[2]; listed as Tris salt
  Initial purity (area %): 96.06 area %
[2]; Initial, listed as tris salt
  Area (%) of HPLC peak RRT 0.77: <0.03%
  Area (%) of HPLC peak RRT 1.13: 0.07%
  Area (%) of HPLC peak RRT 1.45: 0.37%
  Area (%) of HPLC peak RRT 1.71: 0.86%
  Area (%) of HPLC peak RRT 1.73: 0.76%
  Area (%) of HPLC peak RRT 1.00: 96.06%
  Area (%) of HPLC peak RRT 1.17: 1.87%

## CCO[C@H]1CC[C@H](n2cc(NC(=O)c3csc(-c4cnn(C(C)OP(=O)(O)O)c4)n3)c(-c3nc(F)ccc3F)n2)CC1 (stereo partly drawn) [I-111, 1-(4-(4-((3-(3,6-difluoropyridin-2-yl)-1-((1r,4r)-4-ethoxycyclohexyl)-1H-pyrazol-4-yl)carbamoyl)thiazol-2-yl)-1H-pyrazol-1-yl)ethyl dihydrogen phosphate choline salt]
[2]; [5]
  Area (%) of HPLC peak RRT 0.77: 0.04%
  Area (%) of HPLC peak RRT 1.35: 0.10%
  Area (%) of HPLC peak RRT 1.45: 0.07%
  Area (%) of HPLC peak RRT 1.71: 0.05%
  Area (%) of HPLC peak RRT 1.73: 0.46%
  HPLC purity change: no HPLC purity decrease
  Area (%) of HPLC peak RRT 1.00: 98.66%
  Area (%) of HPLC peak RRT 1.17: 0.58%
[2]; 25° C./60% RH/1 week
  Purity/Initial purity (%): 100.0%
[2]; 25° C./60% RH/1 week, listed as Choline salt
  Form change: no form change and No
[2]; [6]
  Area (%) of HPLC peak RRT 0.77: 0.04%
  Area (%) of HPLC peak RRT 1.35: 0.14%
  Area (%) of HPLC peak RRT 1.45: 0.11%
  Area (%) of HPLC peak RRT 1.71: 0.08%
  Area (%) of HPLC peak RRT 1.73: 0.46%
  HPLC purity change: a purity decrease was observed
  Area (%) of HPLC peak RRT 1.00: 97.81%
  Area (%) of HPLC peak RRT 1.17: 1.31%
[2]; 40° C./75% RH/1 week, listed as Choline salt
  Form change: no form change and No
[2]; listed as Choline salt
  Initial purity (area %): 98.70 area %
[2]; Initial
  Area (%) of HPLC peak RRT 1.35: <0.03%
[2]; [7]
  Area (%) of HPLC peak RRT 0.77: 0.03%
  Area (%) of HPLC peak RRT 1.13: 0.06%
  Area (%) of HPLC peak RRT 1.45: 0.06%
  Area (%) of HPLC peak RRT 1.71: 0.06%
  Area (%) of HPLC peak RRT 1.73: 0.33%
  Area (%) of HPLC peak RRT 1.00: 98.70%
  Area (%) of HPLC peak RRT 1.17: 0.75%

## CCO[C@H]1CC[C@H](n2cc(NC(=O)c3csc(-c4cn[nH]c4)n3)c(-c3nc(F)ccc3F)n2)CC1 [I-106, N-(3-(3,6-difluoropyridin-2-yl)-1-((1r,4r)-4-ethoxycyclohexyl)-1H-pyrazol-4-yl)-2-(1H-pyrazol-4-yl)thiazole-4-carboxamide succinate]
[1]; n=3, capsule with equivalent of 25 mg free base compound I-1, listed as Succinate co-crystal
  % F (percent bioavailability): 12.7%

## CCO[C@H]1CC[C@H](n2cc(NC(=O)c3csc(-c4cn[nH]c4)n3)c(-c3nc(F)ccc3F)n2)CC1 [I-104, N-(3-(3,6-difluoropyridin-2-yl)-1-((1r,4r)-4-ethoxycyclohexyl)-1H-pyrazol-4-yl)-2-(1H-pyrazol-4-yl)thiazole-4-carboxamide phosphate]
[1]; cynomolgus monkey, plasma, po, n=3, capsule with equivalent of 25 mg free base compound I-1, read-out: % F (percent bioavailability)
  bioavailability: 7.9%
[1]; cynomolgus monkey, po, n=3, capsule with equivalent of 25 mg free base compound I-1, plasma, normalized to 5 mg/kg of compound I-1, read-out: Average AUC0-24 h ± SD (5 mg/kg basis)
  AUC(0-t): 921 ± 446 ng·h/mL

## CCO[C@H]1CC[C@H](n2cc(NC(=O)c3csc(-c4cn[nH]c4)n3)c(-c3nc(F)ccc3F)n2)CC1 [I-105, N-(3-(3,6-difluoropyridin-2-yl)-1-((1r,4r)-4-ethoxycyclohexyl)-1H-pyrazol-4-yl)-2-(1H-pyrazol-4-yl)thiazole-4-carboxamide gentisate]
[1]; n=3, capsule with equivalent of 25 mg free base compound I-1, listed as Gentisate cocystal
  % F (percent bioavailability): 9.8%

## CCO[C@H]1CC[C@H](n2cc(NC(=O)c3csc(-c4cnn(C(C)OP(=O)(O)O)c4)n3)c(-c3nc(F)ccc3F)n2)CC1 (stereo partly drawn) [I-108, potassium 1-(4-(4-((3-(3,6-difluoropyridin-2-yl)-1-((1r,4r)-4-ethoxycyclohexyl)-1H-pyrazol-4-yl)carbamoyl)thiazol-2-yl)-1H-pyrazol-1-yl)ethyl hydrogen phosphate]
[2]; 25° C./60% RH, 1 week
  Area (%) of HPLC peak RRT 1.14: <0.04%
  Area (%) of HPLC peak RRT 1.40: 0.25%
  Area (%) of HPLC peak RRT 1.44: 0.30%
  Area (%) of HPLC peak RRT 1.70: 0.27%
  Area (%) of HPLC peak RRT 1.72: 0.78%
  Area (%) of HPLC peak RRT 1.81: <0.04%
[2]; 25° C./60% RH, 1 week, listed as K salt
  HPLC purity change: slight purity decrease
[2]; [8]
  Area (%) of HPLC peak RRT 1.00: 96.26%
  Area (%) of HPLC peak RRT 1.17: 2.14%
[2]; 25° C./60% RH/1 week, listed as K salt
  Form change: no form change and No
[2]; 40° C./75% RH, 1 week
  Area (%) of HPLC peak RRT 1.14: 0.05%
  Area (%) of HPLC peak RRT 1.40: 0.39%
  Area (%) of HPLC peak RRT 1.44: 0.24%
  Area (%) of HPLC peak RRT 1.70: 0.24%
  Area (%) of HPLC peak RRT 1.72: 0.83%
  Area (%) of HPLC peak RRT 1.81: 0.04%
[2]; 40° C./75% RH, 1 week, listed as K salt
  HPLC purity change: slight purity decrease
[2]; [9]
  Area (%) of HPLC peak RRT 1.00: 96.40%
  Area (%) of HPLC peak RRT 1.17: 1.80%
[2]; 40° C./75% RH/1 week, listed as K salt
  Form change: a form change was observed and Yes
[2]; listed as K salt
  Initial purity (area %): 97.27 area %
[2]; Initial
  Area (%) of HPLC peak RRT 1.14: <0.04%
  Area (%) of HPLC peak RRT 1.40: 0.23%
  Area (%) of HPLC peak RRT 1.44: 0.21%
  Area (%) of HPLC peak RRT 1.70: 0.18%
  Area (%) of HPLC peak RRT 1.72: 0.77%
  Area (%) of HPLC peak RRT 1.81: <0.04%
[2]; [10]
  Area (%) of HPLC peak RRT 1.00: 97.27%
  Area (%) of HPLC peak RRT 1.17: 1.33%
